Each block holds one molecule with its values, some of them ahead of it.
Columns and labels:
[1] = Dissolution Assay in Fasted Simulated Gastric Fluid; format: physicochemical; conditions: Fasted Simulated Gastric Fluid (FaSSGF), 37° C.
Procedure: The dissolution bath was filled with 900 mL of media for testing, the bath temperature held at 37° C., the rotation rate of the apparatus was 50 rpm, the draw point for the sampling probe was set exactly halfway between the surface of the media and the surface of the disc. The test article (0.4 g) was compressed into a disc using a Woods apparatus. The sampling time points were 10, 30, 60, 90, 120, 150 & 180. The samples were analysed by HPLC for concentration against a sample preparation of known concentration (ca. 0.5 mg/ml). Dissolution rate was derived from the curve of concentration against time.

[2] = Solid form stability of Compound 1 mesylate forms; format: physicochemical

Compound: O=C1NCc2nc(-c3c(F)cccc3F)cc(Nc3ccc(C(=O)N4CCCC4)cc3)c21 [Compound 1]
dissolution rate [1]: 57.5 μg/cm^2/min

Compound: O=C1NCc2nc(-c3c(F)cccc3F)cc(Nc3ccc(C(=O)N4CCOCC4)cc3)c21 [Compound 9]
dissolution rate [1]: 21.2 μg/cm^2/min

Compound: CS(=O)(=O)O.O=C1NCc2nc(-c3c(F)cccc3F)cc(Nc3ccc(C(=O)N4CCCC4)cc3)c21 [Form III]
solid form stability ([2]; upon drying under ambient conditions): transition to Form IV

Second part, the molecule after the results:

solid form stability ([2]; ambient conditions): stable at ambient conditions
Compound: CS(=O)(=O)O.O=C1NCc2nc(-c3c(F)cccc3F)cc(Nc3ccc(C(=O)N4CCCC4)cc3)c21 [Form IV]

solid form stability ([2]; upon grinding): transition to Form I
Compound: CS(=O)(=O)O.O=C1NCc2nc(-c3c(F)cccc3F)cc(Nc3ccc(C(=O)N4CCCC4)cc3)c21 [Form V]
